Target: T1, TRPC5-SYFP2 (TRPC5:C5 channels) (Homo sapiens, UniProt Q9UL62)
T1 construct: expressed in transfected cells
T1 sequence (Q9UL62 1-973): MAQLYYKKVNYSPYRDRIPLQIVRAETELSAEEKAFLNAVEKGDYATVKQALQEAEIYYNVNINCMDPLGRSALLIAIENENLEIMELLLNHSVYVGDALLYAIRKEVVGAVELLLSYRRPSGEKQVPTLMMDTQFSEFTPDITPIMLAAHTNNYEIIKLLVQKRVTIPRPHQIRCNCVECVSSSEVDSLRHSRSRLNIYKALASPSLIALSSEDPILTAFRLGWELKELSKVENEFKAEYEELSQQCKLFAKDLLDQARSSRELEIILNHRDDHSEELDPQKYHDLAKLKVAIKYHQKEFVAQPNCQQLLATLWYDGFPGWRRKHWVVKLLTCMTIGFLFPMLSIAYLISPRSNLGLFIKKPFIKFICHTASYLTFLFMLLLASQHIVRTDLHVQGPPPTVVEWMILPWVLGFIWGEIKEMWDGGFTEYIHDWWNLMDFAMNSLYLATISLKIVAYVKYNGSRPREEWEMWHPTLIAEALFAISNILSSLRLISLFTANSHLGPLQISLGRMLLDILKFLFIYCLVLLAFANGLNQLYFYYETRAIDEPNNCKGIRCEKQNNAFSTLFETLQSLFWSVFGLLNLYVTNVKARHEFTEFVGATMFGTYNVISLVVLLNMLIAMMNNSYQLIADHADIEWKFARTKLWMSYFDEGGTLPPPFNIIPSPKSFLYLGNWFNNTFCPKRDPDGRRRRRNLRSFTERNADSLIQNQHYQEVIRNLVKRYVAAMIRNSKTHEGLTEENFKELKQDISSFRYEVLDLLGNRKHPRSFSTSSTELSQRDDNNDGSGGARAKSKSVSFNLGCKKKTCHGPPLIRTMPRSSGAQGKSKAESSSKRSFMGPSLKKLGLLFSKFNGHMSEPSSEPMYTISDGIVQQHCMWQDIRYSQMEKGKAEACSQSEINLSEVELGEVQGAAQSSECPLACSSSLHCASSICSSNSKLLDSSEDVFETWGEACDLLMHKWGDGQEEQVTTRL
Assay: [Ca2+]i measurement (Fura-2, FlexStation) in (Tet+) HEK T-REx cells expressing hTRPC5-SYFP2
Assay type: cell-based
Description: To facilitate cloning of TRPC5‐SYFP2 and TRPC4‐SYFP2, a pcDNA™4/TO expression vector (ThermoFisher Scientific, Waltham, MA, USA), into which a four amino acid linker (ASAS) flanked by AgeI and SacII restriction sites had been introduced between EcoRI and XhoI restriction sites, was used (Naylor et al., 2016). Human TRPC4β was inserted between BamHI and AgeI restriction sites as described previously (Ludlow et al., 2017). Human TRPC5 (forward primer: 5′ GCTTGGTACCGCCACCATG 3′ and reverse primer: 5′ […] 3′) was inserted upstream of the linker between KpnI and AgeI restriction sites using hTRPC5/pcDNA™4/TO (Zeng et al., 2004) as a PCR template. Both constructs contained an N‐terminal Kozak sequence. SYFP2 was inserted downstream of the linker between SacII and XbaI restriction sites using pSYFP2‐C1 as a PCR template (forward primer, 5′ […] 3′; reverse primer, 5′ […] 3′). pSYFP2‐C1 was a gift from Dorus Gadella (Addgene plasmid #22878; http://n2t.net/addgene:22878; RRID:Addgene_22878; Kremers, Goedhart, van Munster, & Gadella, 2006). Plasmids were sequenced to verify identity.
HEK T‐REx™ cell line was transfected with TRPC5‐SYFP2 or TRPC4‐SYFP2 using FuGENE® HD transfection reagent. After 48 hr, cells were put under antibiotic selection using 400 μg·ml^−1 zeocin and 10 μg·ml^−1 blasticidin S (Invivogen, San Diego, California, USA). Medium changes were carried out regularly to remove dead cells. HEK T‐REx cells expressing tetracycline‐inducible human TRPC5, TRPC4–C1, and TRPC5–C1 were created as described previously (Akbulut et al., 2015; Ludlow et al., 2017; Rubaiy, Ludlow, Henrot, et al., 2017). TRPC5–C1 and TRPC4–C1 concatemers allow expression of functional channels with defined 2:2 stoichiometry that display ion permeability and current–voltage relationships distinct from those of homomeric TRPC4:C4 or TRPC5:C5 channels and consistent with those obtained upon co‐expression of TRPC1 with TRPC4 or TRPC5 (Ludlow et al., 2017; Rubaiy, Ludlow, Bon, & Beech, 2017; Rubaiy, Ludlow, Henrot, et al., 2017). Cells were cultured in DMEM‐F12 GlutaMAX (Invitrogen, Paisley, UK) containing 10% FBS (Sigma‐Aldrich, Gillingham, UK), with the addition of blasticidin (10 μg·ml^−1) and zeocin (400 μg·ml^−1) to maintain the stable incorporation of the tetracycline repressor and the channel of interest, respectively. Expression of proteins was induced by the addition of tetracycline (1 μg·ml^−1, 24 hr). Cells were maintained in a humidified incubator with 5% CO2 at 37°C. HEK 293 cells stably expressing tetracycline‐regulated human http://www.guidetopharmacology.org/GRAC/ObjectDisplayForward?objectId=494 were prepared similarly and have also been described previously (McHugh, Flemming, Xu, Perraud, & Beech, 2003). For experiments using transient co‐expression of TRPC1 and TRPC5, HEK cells at 40–60% confluency were transfected with pIRES2‐AcGFP1 and pIRES2‐DsRed‐Express2 plasmids containing human TRPC1 and TRPC5, respectively, using Lipofectamine 3000 (ThermoFisher Scientific, Yokohama, Japan). All experiments using transient expression were performed within 48 hr after transfection. A498 cells were cultured in Minimum Essential Medium containing Earle's salts (ThermoFisher Scientific, Loughborough, UK), supplemented with 10% FBS and penicillin–streptomycin (100 units per ml^−1, 100 μg·ml^−1; ThermoFisher Scientific, Loughborough, UK). CHO cells stably expressing http://www.guidetopharmacology.org/GRAC/ObjectDisplayForward?objectId=510 were maintained in Ham's Nutrient Mixture F12 (ThermoFisher Scientific, Loughborough, UK) supplemented with 10% FBS, penicillin–streptomycin, and 1 mg·ml^−1 G418 (InvivoGen, San Diego, California, USA). For experiments using hTRPC3 and hTRPC6, WT HEK 293 cells were transfected with hTRPC3 (Naylor et al., 2016) or hTRPC6 (cloned into pcDNA3) using jetPRIME® transfection reagent (VWR, Lutterworth, UK). Cells were assayed 48 hr after transfection. […]

Q: With Cn1c(=O)n(CCCO)c(=O)c2c1nc(Oc1ccc(Cl)c(OC(F)(F)F)c1)n2Cc1ccc(Cl)cc1 [AM237] as the molecule, how does the “Hill slope, suppression of EA response” value (10 nM EA) read?
A: Its value is -2.2.

Q: What about the “Effect on S1P-mediated [Ca2+]i response” value (0.3 to 1 nM AM237, 30 min pre-incubation, 10 μM S1P) of the same molecule?
A: The value was “no significant effect”.

Q: What about the “Effect on [Ca2+]i in the absence of extracellular Ca2+” value (0.3–300 nM, Ca2+-free SBS with 0.4 mM EGTA) of the same molecule?
A: The value was “did not increase”.

Q: And the “Effect on S1P-mediated activation of TRPC5:C5” value (3–300 nM AM237, 30 min pre-incubation, 10 μM S1P)?
A: Its value is “significantly increased”.

Q: What about the IC50 (30 min pre-incubation, then 10 nM EA, read-out: Relative IC50, suppression of EA-mediated [Ca2+]i response) of the same molecule?
A: The IC50 was 0.013 µM.

Q: And the EC50 (Control (DMSO pretreatment), competition experiment, read-out: EC50, activation)?
A: The EC50 was 0.01 µM.

Q: What about the “Effect on S1P response upon simultaneous addition” value (co-application of 10 μM S1P and 0.3–300 nM AM237) of the same molecule?
A: The value was “increases of the responses to S1P”.

Q: What about the “Hill slope, activation” value (hTRPC5-SYFP2 concentration–response curve) of the same molecule?
A: The value was 1.4.
